Measured values as given in PubChem BioAssay (NCI).
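Compound exposure: 48 hours, 5 concentrations, 96-well plates. At the TGI there is no net growth.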

Key:
Assay in all cases: NCI-60 cell line screen, 48 h
COLO 205 colon = system: COLO 205 colon
786-0 renal = system: 786-0 renal
NCI/ADR-RES ovarian = system: NCI/ADR-RES ovarian
DU-145 prostate = system: DU-145 prostate
NCI-H460 lung = system: NCI-H460 lung
CCRF-CEM leukemia = system: CCRF-CEM leukemia
OVCAR-3 ovarian = system: OVCAR-3 ovarian
HL-60(TB) leukemia = system: HL-60(TB) leukemia
HCT-15 colon = system: HCT-15 colon
SF-539 CNS = system: SF-539 CNS

SMILES | TGI (COLO 205 colon) | TGI (786-0 renal) | TGI (NCI/ADR-RES ovarian) | TGI (DU-145 prostate) | TGI (NCI-H460 lung) | TGI (CCRF-CEM leukemia) | TGI (OVCAR-3 ovarian) | TGI (HL-60(TB) leukemia) | TGI (HCT-15 colon) | TGI (SF-539 CNS)
CSc1c(C(C)=O)c(O)n(-c2ccc(Cl)cc2)c(=O)c1C#N | 65.6 µM | > 100 µM | > 100 µM | > 100 µM | > 100 µM | 54.3 µM | > 100 µM | 46.9 µM | 99.5 µM | > 100 µM
C=CCc1c(O)c2ccccc2[nH]c1=O | > 100 µM | > 100 µM | > 100 µM | > 100 µM | > 100 µM | > 100 µM | > 100 µM | > 100 µM | > 100 µM | > 100 µM
CN(C)c1ccc(/C=C(\NC(=O)c2ccccc2)C(=O)Nc2ccccc2C(=O)NN2C(=O)CSC2c2ccc(N(C)C)cc2)cc1 (stereo not given) | > 100 µM | > 100 µM | > 100 µM | > 100 µM | 31.7 µM | > 100 µM | > 100 µM | > 100 µM | > 100 µM | > 100 µM
N#Cc1c(=O)c2cccnc2n2c1[nH]c1ccccc12 | > 100 µM | > 100 µM | > 100 µM | > 100 µM | > 100 µM | > 100 µM | > 100 µM | > 100 µM | > 100 µM | > 100 µM
CC(=O)N(C(C)=O)n1c(Cc2ccc(Cl)cc2)nn(C(C)=O)c1=O | > 100 µM | > 100 µM | > 100 µM | > 100 µM | > 100 µM | > 100 µM | > 100 µM | > 100 µM | > 100 µM | > 100 µM
O=C1C/C(=C\O)C(=O)c2ccccc2N1 | > 100 µM | > 100 µM | > 100 µM | > 100 µM | > 100 µM | > 100 µM | > 100 µM | > 100 µM | > 100 µM | > 100 µM
Cc1[nH]c(=O)nc(N/N=C/c2ccc(Cl)c(Cl)c2)c1C(=O)Nc1ccc(Cl)c(Cl)c1 | > 44.1 µM | > 39 µM | > 47.6 µM | > 41.2 µM | > 49.6 µM | > 23 µM | 24.5 µM | > 78.2 µM | > 42.9 µM | 41.2 µM
O=C1CCSSCCC(=O)Nc2ccccc2N1 | > 100 µM | > 100 µM | > 100 µM | > 100 µM | > 100 µM | > 100 µM | > 100 µM | > 100 µM | > 100 µM | > 100 µM
Cc1ccc(Nc2nc(=O)[nH]c(=O)[nH]2)cc1N | > 100 µM | > 100 µM | > 100 µM | > 100 µM | > 100 µM | > 100 µM | > 100 µM | > 100 µM | > 100 µM | > 100 µM
